# Reference: PMC5128878 (Scientific Reports, 2016)
# Several values for one entry are separate records, joined by “and”; a condition that tells them apart may be missing. Equal values may be shown once. Read-outs that look alike come from different tables or passages of the source.
# What was measured:
# [1] = test system: nAChRs expressed by PC12 cells; details: patch-clamp study of PC12 cells ref 14; cited from earlier work
# α4β2(V253F) nAChR = target: T1, α4β2(V253F) nAChR (Rattus norvegicus, UniProt P09483+P12390, V277F); assay: Two-electrode voltage clamp of ACh currents, α4β2(V253F) nAChRs expressed in Xenopus oocytes; format: cell-based; details: for IC50: α4β2(V253F), ACh 10 μM
# T1 construct: expressed in transfected cells; host or cells: Xenopus laevis oocytes injected with cRNA
# Procedure: (§1) cDNA clones of rat neuronal nAChR subunits (α3, α4, β2 and β4) and mouse muscle subunits (α1, β1, γ and δ) were from the Salk Institute for Biological Studies (Professor Stephen Heinemann). The human α7 and RIC-3 cDNAs were provided by Professor David Sattelle (University College London).
# (§2) Oocytes isolated from mature female Xenopus laevis were supplied by the European Xenopus Resource Centre, University of Portsmouth, UK. Oocytes were treated with collagenase (0.5 mg/ml, Sigma type 1 A) in Ca^2+-free solution (96 mM NaCl, 2 mM KCl, 1 mM MgCl2, 5 mM HEPES, 2.5 mM Na-pyruvate, 100 U/mL penicillin, 0.1 mg/mL streptomycin, pH 7.5) with shaking at 19 °C to defolliculate and remove the connective tissue surrounding the cells. After separation, oocytes were washed 7 times with modified Barth’s solution (96 mM NaCl, 2 mM KCl, 1.8 mM CaCl2, 1 mM MgCl2, 5 mM HEPES, 2.5 mM Na-pyruvate, 0.5 mM theophylline, 50 μg/mL gentamicin, pH 7.5) and kept at 19 °C in the same solution.
# (§3) Healthy oocytes were injected with cRNA using a Nano-liter Injector (World Precision Instruments Inc, USA). Mixtures of nAChR subunit cRNAs were injected as follows; for heteromeric rat neuronal receptors a 1:1 ratio of α:β at 200 ng/μL; for mouse embryonic muscle a 1:1:1:1 ratio of α:β:γ:δ at 25 ng/μL; human α7 at 100 ng/μL was mixed with RIC-3 at 30 ng/μL. Each oocyte was injected with 50 nL of RNA solution. Injected oocytes were saved in Barth’s solution at 19 °C for two to three days for expression of the target protein. During this time oocytes were regularly checked to remove unhealthy ones.
# (§4) Electrophysiological recordings were taken from nAChR-expressing oocytes by two-electrode voltage clamp using a Geneclamp 500 voltage clamp amplifier (Axon instruments, USA). An oocyte was placed in the perfusion chamber using a plastic Pasteur pipette and the bath was perfused (~5 mL/min) with fresh Frog Ringer solution (96 mM NaCl, 2 mM KCl, 1.8 mM CaCl2 and 5 mM HEPES, pH 7.5). Microelectrodes were pulled from borosilicate glass capillaries (Harvard GC150TF-10) using a programmable micropipette puller (Sutter P97, USA), and they had resistances between 0.5 and 2.5 MΩ when filled with 3 M KCl. The oocyte was voltage-clamped at holding potentials (VH) between −60 and −100 mV. […] Currents were recorded to a PC via a digidata 1200 analog-to-digital converter (Axon Instuments, USA) using WinEDR v3.2.6 Software (Dr John Dempster, University of Strathclyde, UK).
# (§5) Graphpad Prism 6 was used for data analysis, graph plotting and curve fitting. All plotted points are the mean ± SEM obtained from 4–20 oocytes.
# α3β4(F255V) nAChR = target: T2, α3β4(F255V) nAChR (Rattus norvegicus, UniProt P04757+P12392, F275V); assay: Two-electrode voltage clamp of ACh currents, α3β4(F255V) nAChRs expressed in Xenopus oocytes; format: cell-based; details: for IC50: α3β4(F255V), ACh 100 μM
# T2 construct: expressed in transfected cells; host or cells: Xenopus laevis oocytes injected with cRNA
# Procedure: as §1, §2, §3, §4, §5
# α3β2 nAChR = α3β2 nAChR (Rattus norvegicus, UniProt P04757+P12390); assay: Two-electrode voltage clamp of ACh currents, α3β2 nAChRs expressed in Xenopus oocytes; details: for IC50: IC50 (95% CI), ACh 30 μM
# Procedure: as §2, §3, §4, §5
# α3β4 nAChR = target: T3, α3β4 nAChR (Rattus norvegicus, UniProt P04757+P12392); assay: cell-based; details: for IC50: IC50 (95% CI)
# T3 construct: expressed in transfected cells; host or cells: Xenopus laevis oocytes injected with cRNA
# Procedure: as §2, §3, §4, §5
# α1β1γδ nAChR = target: T4, α1β1γδ nAChR (Mus musculus, UniProt P02716+P04756+P04760+P09690); assay: cell-based; format: cell-based; details: for IC50: IC50 (95% CI), ACh 10 μM
# T4 construct: expressed in transfected cells; host or cells: Xenopus laevis oocytes injected with cRNA
# Procedure: as §2, §3, §4, §5
# nAChRs = assay: Two-electrode voltage clamp of Xenopus oocytes expressing nAChRs, statements across tested subtypes; format: cell-based
# Procedure: as §1, §2, §3, §4, §5
# α4β2 nAChR = target: T5, α4β2 nAChR (Rattus norvegicus, UniProt P09483+P12390); assay: cell-based; format: cell-based; details: for IC50: IC50 (95% CI), ACh 10 μM
# T5 construct: expressed in transfected cells; host or cells: Xenopus laevis oocytes injected with cRNA
# Procedure: as §1, §2, §3, §4, §5
# α4β4 nAChR = target: T6, α4β4 nAChR (Rattus norvegicus, UniProt P09483+P12392); assay: cell-based; format: cell-based; details: for IC50: IC50 (95% CI), ACh 10 μM
# T6 construct: expressed in transfected cells; host or cells: Xenopus laevis oocytes injected with cRNA
# Procedure: as §2, §3, §4, §5
# α7 nAChR = target: T7, α7 nAChR (Homo sapiens, UniProt P36544); assay: Two-electrode voltage clamp of ACh currents, α7 nAChRs (with RIC-3) expressed in Xenopus oocytes; format: cell-based; details: for IC50: IC50 (95% CI), ACh 100 μM
# T7 construct: expressed in transfected cells; host or cells: Xenopus laevis oocytes injected with cRNA
# Procedure: as §2, §3, §4, §5
# [2] = VH −60 mV, late current (1 min), read-out: IC50 (95% CI), Late
# [3] = VH −60 mV, peak current, read-out: IC50 (95% CI), Peak
# [4] = VH −80 mV, late current (1 min), read-out: IC50 (95% CI), Late
# [5] = VH −80 mV, peak current, read-out: IC50 (95% CI), Peak
# [6] = VH −100 mV, late current (1 min), read-out: IC50 (95% CI), Late
# [7] = VH −100 mV, peak current, read-out: IC50 (95% CI), Peak
# [8] = α3β4, after co-application of 10 μM toxin, ACh 100 μM, −80 mV
# T7 sequence (P36544 23-502): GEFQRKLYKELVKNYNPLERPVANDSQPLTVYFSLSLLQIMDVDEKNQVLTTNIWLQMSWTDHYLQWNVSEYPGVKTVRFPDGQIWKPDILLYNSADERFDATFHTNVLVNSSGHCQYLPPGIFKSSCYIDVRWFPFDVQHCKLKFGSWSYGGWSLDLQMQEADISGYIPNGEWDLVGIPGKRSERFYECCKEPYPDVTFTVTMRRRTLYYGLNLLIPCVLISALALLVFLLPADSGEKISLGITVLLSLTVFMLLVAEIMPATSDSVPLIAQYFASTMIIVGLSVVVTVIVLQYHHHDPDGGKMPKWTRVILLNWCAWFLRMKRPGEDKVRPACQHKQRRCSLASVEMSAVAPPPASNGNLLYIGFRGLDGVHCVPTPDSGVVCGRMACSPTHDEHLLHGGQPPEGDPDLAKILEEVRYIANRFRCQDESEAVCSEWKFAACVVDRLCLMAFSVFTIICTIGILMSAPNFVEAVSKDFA
# T4 sequence (P04756 21-457): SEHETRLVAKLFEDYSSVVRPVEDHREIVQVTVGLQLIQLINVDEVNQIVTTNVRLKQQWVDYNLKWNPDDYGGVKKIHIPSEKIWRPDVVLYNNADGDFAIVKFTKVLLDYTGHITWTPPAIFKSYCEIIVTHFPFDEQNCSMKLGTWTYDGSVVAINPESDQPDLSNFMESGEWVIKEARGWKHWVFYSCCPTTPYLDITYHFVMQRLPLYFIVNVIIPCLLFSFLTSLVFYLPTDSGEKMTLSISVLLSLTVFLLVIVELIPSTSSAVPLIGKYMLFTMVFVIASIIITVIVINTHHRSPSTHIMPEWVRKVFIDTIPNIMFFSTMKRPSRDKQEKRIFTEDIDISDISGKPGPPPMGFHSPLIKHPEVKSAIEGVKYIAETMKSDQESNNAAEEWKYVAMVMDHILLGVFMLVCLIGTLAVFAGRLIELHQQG
# T4 sequence (P09690 24-501): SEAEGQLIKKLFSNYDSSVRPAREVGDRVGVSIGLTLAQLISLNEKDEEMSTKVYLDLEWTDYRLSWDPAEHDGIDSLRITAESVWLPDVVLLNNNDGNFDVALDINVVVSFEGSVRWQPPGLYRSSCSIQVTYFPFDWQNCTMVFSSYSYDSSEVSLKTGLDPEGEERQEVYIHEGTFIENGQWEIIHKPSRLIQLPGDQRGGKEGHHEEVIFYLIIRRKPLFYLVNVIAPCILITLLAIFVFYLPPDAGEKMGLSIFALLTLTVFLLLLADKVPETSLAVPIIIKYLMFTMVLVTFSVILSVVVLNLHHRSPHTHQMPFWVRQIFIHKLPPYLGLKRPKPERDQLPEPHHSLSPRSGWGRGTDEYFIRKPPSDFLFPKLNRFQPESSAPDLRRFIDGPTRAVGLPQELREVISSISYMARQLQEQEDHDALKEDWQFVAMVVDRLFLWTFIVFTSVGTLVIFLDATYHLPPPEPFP
# T4 sequence (P04760 23-519): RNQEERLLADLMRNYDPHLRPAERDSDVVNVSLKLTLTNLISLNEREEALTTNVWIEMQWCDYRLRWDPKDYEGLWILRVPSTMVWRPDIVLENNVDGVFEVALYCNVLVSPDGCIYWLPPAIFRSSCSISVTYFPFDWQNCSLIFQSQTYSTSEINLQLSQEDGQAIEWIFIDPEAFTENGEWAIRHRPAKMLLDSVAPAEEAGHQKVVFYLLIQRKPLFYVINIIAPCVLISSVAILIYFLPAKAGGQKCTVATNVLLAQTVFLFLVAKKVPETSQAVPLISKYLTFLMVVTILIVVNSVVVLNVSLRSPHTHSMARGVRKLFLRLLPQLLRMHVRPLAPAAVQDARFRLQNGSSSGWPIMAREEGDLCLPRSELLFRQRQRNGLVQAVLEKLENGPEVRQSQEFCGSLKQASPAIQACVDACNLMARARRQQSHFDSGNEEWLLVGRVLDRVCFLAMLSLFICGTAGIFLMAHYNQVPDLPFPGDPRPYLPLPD
# T4 sequence (P02716 25-520): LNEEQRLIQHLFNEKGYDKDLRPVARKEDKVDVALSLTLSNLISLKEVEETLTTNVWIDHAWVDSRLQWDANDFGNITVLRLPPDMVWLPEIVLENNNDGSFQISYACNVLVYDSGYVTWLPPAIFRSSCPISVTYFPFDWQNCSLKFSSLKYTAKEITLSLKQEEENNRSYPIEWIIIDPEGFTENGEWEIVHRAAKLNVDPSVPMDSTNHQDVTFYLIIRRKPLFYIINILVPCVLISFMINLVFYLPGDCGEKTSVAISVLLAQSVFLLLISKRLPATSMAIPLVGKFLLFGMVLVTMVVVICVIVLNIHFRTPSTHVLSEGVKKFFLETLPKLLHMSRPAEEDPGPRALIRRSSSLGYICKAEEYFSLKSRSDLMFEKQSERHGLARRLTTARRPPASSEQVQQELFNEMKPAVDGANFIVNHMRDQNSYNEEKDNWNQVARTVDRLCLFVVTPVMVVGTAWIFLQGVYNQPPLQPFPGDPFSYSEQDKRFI
# T6 sequence (P09483 31-630): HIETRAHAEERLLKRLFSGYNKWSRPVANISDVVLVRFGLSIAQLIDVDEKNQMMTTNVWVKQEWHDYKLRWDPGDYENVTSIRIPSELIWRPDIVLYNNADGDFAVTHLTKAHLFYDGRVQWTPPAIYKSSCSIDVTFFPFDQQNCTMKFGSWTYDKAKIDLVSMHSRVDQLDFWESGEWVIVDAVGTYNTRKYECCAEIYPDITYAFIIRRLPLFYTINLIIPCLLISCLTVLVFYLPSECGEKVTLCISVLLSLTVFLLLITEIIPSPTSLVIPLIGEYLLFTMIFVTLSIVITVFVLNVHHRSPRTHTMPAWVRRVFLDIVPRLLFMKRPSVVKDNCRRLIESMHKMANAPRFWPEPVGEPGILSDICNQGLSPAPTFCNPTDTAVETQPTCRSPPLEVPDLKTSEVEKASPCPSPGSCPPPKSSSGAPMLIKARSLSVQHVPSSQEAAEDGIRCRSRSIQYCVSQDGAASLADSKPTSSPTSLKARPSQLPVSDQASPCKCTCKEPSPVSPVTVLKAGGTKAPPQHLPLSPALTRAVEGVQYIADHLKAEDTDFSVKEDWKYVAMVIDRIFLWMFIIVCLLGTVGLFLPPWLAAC
# T6 sequence (P12392 21-495): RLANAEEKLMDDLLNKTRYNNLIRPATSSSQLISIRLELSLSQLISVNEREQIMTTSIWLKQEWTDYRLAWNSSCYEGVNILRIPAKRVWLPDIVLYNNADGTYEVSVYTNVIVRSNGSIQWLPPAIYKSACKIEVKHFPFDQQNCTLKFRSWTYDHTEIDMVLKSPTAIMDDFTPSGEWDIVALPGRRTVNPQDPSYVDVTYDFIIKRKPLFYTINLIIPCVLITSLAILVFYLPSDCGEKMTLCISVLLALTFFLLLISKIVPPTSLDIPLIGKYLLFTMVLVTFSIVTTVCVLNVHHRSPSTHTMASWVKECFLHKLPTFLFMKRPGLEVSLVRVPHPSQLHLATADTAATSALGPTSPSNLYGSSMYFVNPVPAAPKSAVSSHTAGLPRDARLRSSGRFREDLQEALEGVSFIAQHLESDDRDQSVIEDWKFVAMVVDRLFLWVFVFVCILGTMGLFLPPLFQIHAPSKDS
# T5 sequence (P09483 31-630): as the sequence (P09483 31-630) above
# T5 sequence (P12390 25-500): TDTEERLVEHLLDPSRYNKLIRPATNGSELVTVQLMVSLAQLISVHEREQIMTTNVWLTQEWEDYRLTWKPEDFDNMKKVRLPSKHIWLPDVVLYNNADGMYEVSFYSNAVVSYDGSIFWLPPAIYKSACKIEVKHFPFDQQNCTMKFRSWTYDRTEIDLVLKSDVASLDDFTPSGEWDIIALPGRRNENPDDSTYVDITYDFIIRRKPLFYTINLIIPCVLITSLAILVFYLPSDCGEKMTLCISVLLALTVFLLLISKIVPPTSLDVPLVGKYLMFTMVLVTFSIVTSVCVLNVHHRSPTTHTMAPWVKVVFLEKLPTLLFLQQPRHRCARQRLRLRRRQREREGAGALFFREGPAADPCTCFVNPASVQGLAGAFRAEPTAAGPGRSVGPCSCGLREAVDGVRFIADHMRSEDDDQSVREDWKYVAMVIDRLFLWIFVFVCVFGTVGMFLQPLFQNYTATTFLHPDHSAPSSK
# T1 sequence (P09483 31-630, stated change not applied): as the sequence (P09483 31-630) above
# T1 sequence (P12390 25-500 V277F): as the sequence (P12390 25-500) above, with V253F counted along it
# T2 sequence (P04757 26-499): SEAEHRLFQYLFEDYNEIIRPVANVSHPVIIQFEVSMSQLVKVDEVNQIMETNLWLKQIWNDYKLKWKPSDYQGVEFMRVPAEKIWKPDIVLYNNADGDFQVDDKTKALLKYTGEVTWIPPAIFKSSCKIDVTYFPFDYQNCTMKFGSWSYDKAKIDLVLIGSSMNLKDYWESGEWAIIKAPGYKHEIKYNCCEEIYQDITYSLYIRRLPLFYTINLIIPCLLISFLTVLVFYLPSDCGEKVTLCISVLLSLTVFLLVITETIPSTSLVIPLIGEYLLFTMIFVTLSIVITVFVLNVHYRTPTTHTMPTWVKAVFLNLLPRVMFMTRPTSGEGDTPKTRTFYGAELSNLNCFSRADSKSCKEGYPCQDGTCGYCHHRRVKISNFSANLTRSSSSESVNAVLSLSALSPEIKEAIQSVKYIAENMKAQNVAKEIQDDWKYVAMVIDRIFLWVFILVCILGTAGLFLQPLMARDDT
# T2 sequence (P12392 21-495 F275V): as the sequence (P12392 21-495) above, with F255V counted along it
# T3 sequence (P04757 26-499): as the sequence (P04757 26-499) above
# T3 sequence (P12392 21-495): as the sequence (P12392 21-495) above
# α3β2 nAChR, sequence (P04757 26-499): as the sequence (P04757 26-499) above
# α3β2 nAChR, sequence (P12390 25-500): as the sequence (P12390 25-500) above
smiles,measurement,setting,value
CCCC(=O)N[C@@H](Cc1ccc(O)cc1)C(=O)NCCCNCCCCNCCCN [PhTX-343],IC50,[1],100 nM
same,reduction in late current IC50 as compared to α4β2,"α4β2(V253F) nAChR; α4β2(V253F) vs α4β2, late current, −80 mV",2.6 fold
same,change in peak current IC50 as compared to α4β2,"α4β2(V253F) nAChR; α4β2(V253F) vs α4β2, peak current, −80 mV",no significant change
same,IC50,α4β2(V253F) nAChR; [2],63 nM
same,IC50,α4β2(V253F) nAChR; [3],620 nM
same,IC50,α4β2(V253F) nAChR; [4],120 nM
same,IC50,α4β2(V253F) nAChR; [5],750 nM
same,IC50,α4β2(V253F) nAChR; [6],14 nM
same,IC50,α4β2(V253F) nAChR; [7],110 nM
same,increase in late current IC50 as compared to α3β4,"α3β4(F255V) nAChR; α3β4(F255V) vs α3β4, late current, −80 mV",did not see the expected increase
same,reduction in peak current IC50 as compared to α3β4,"α3β4(F255V) nAChR; α3β4(F255V) vs α3β4, peak current, −80 mV",2.1 fold
same,IC50,α3β4(F255V) nAChR; [2],74 nM
same,IC50,α3β4(F255V) nAChR; [3],310 nM
same,IC50,α3β4(F255V) nAChR; [4],12 nM
same,IC50,α3β4(F255V) nAChR; [5],38 nM
same,IC50,α3β4(F255V) nAChR; [6],5 nM
same,IC50,α3β4(F255V) nAChR; [7],17 nM
same,IC50,"α3β2 nAChR; Late, α3β2, VH −60 mV, late current (1 min)",1590 nM
same,IC50,"α3β2 nAChR; Late, α3β2, VH −80 mV, late current (1 min)",1370 nM
same,IC50,"α3β2 nAChR; Late, α3β2, VH −100 mV, late current (1 min)",370 nM
same,IC50,"α3β2 nAChR; Peak, α3β2, VH −60 mV, peak current",64500 nM
same,IC50,"α3β2 nAChR; Peak, α3β2, VH −80 mV, peak current",9260 nM
same,IC50,"α3β2 nAChR; Peak, α3β2, VH −100 mV, peak current",3590 nM
same,recovery of peak current after six ACh applications (36 min),"α3β2 nAChR; α3β2, 10 μM toxin, −80 mV",very limited or absent
same,decrease of peak current IC50 from −60 mV to VH −100 mV,"α3β2 nAChR; α3β2, peak current",18 fold
same,times less sensitive than the most sensitive subtype,"α3β2 nAChR; α3β2 vs α3β4 (for PhTX-12: α1β1γδ along with α3β4), late current IC50, −80 mV",114 times
same,IC50,"α3β4 nAChR; Late, α3β4, VH −60 mV, late current (1 min), ACh 100 μM",88 nM
same,IC50,"α3β4 nAChR; Late, α3β4, VH −80 mV, late current (1 min), ACh 100 μM",12 nM
same,IC50,"α3β4 nAChR; Late, α3β4, VH −100 mV, late current (1 min), ACh 100 μM",7.7 nM
same,IC50,"α3β4 nAChR; Peak, α3β4, VH −60 mV, peak current, ACh 100 μM",290 nM
same,IC50,"α3β4 nAChR; Peak, α3β4, VH −80 mV, peak current, ACh 100 μM",80 nM
same,IC50,"α3β4 nAChR; Peak, α3β4, VH −100 mV, peak current, ACh 100 μM",77 nM
same,recovery of late current after six ACh applications (36 min),α3β4 nAChR; [8],69 % of control
same,recovery of peak current after six ACh applications (36 min),α3β4 nAChR; [8],82 % of control
same,decrease of peak current IC50 from −60 mV to VH −100 mV,"α3β4 nAChR; α3β4, peak current",3.8 fold
same,"more potent than PhTX-12, peak current inhibition","α3β4 nAChR; α3β4, peak current, −80 mV",33 fold
same,"potency higher as compared to α3β2, peak current","α3β4 nAChR; α3β4 vs α3β2, peak current, −80 mV",115 fold
same,IC50,"α1β1γδ nAChR; Late, α1β1γδ, VH −60 mV, late current (1 min)",18000 nM
same,IC50,"α1β1γδ nAChR; Late, α1β1γδ, VH −80 mV, late current (1 min)",12000 nM and 11900 nM
same,IC50,"α1β1γδ nAChR; Late, α1β1γδ, VH −100 mV, late current (1 min)",2440 nM
same,IC50,"α1β1γδ nAChR; Peak, α1β1γδ, VH −60 mV, peak current",27100 nM
same,IC50,"α1β1γδ nAChR; Peak, α1β1γδ, VH −80 mV, peak current",15100 nM
same,IC50,"α1β1γδ nAChR; Peak, α1β1γδ, VH −100 mV, peak current",3260 nM
same,times less sensitive than the most sensitive subtype,"α1β1γδ nAChR; α1β1γδ vs α3β4, late current IC50, −80 mV",992 times and 1000 times
same,surmountability of peak current inhibition by increasing ACh concentrations,"α1β1γδ nAChR; α1β1γδ, 10 μM toxin, peak current, −80 mV",surmountable
same,reversibility of inhibition,"α1β1γδ nAChR; α1β1γδ, 100 μM toxin, washing in frog Ringer solution, −80 mV",reversible after 6 min
same,effect on membrane current when applied alone,"nAChRs; 100 μM applied alone, VH = −80 mV, oocytes expressing nAChRs",did not produce any effect on membrane current
same,surmountability of late current inhibition by high ACh concentrations,"nAChRs; all nAChRs including α7 and α1β1γδ, late current, −80 mV",not surmountable
same,voltage dependence of inhibition,"nAChRs; heteromeric nAChRs, VH −60 to −100 mV",strongly voltage-dependent
same,reversibility of inhibition,"nAChRs; heteromeric neuronal nAChRs, 10 μM toxin, −80 mV",irreversible
same,IC50,"α4β2 nAChR; Late, α4β2, VH −60 mV, late current (1 min)",460 nM
same,IC50,"α4β2 nAChR; Late, α4β2, VH −80 mV, late current (1 min)",310 nM
same,IC50,"α4β2 nAChR; Late, α4β2, VH −100 mV, late current (1 min)",80 nM
same,IC50,"α4β2 nAChR; Peak, α4β2, VH −60 mV, peak current",1900 nM
same,IC50,"α4β2 nAChR; Peak, α4β2, VH −80 mV, peak current",930 nM
same,IC50,"α4β2 nAChR; Peak, α4β2, VH −100 mV, peak current",140 nM
same,recovery of peak current after six ACh applications (36 min),"α4β2 nAChR; α4β2, 10 μM toxin, −80 mV",very limited or absent
same,decrease of peak current IC50 from −60 mV to VH −100 mV,"α4β2 nAChR; α4β2, peak current",14 fold
same,times less sensitive than the most sensitive subtype,"α4β2 nAChR; α4β2 vs α3β4 (for PhTX-12: α1β1γδ along with α3β4), late current IC50, −80 mV",26 times
same,IC50,"α4β4 nAChR; Late, α4β4, VH −60 mV, late current (1 min)",170 nM
same,IC50,"α4β4 nAChR; Late, α4β4, VH −80 mV, late current (1 min)",65 nM
same,IC50,"α4β4 nAChR; Late, α4β4, VH −100 mV, late current (1 min)",27 nM
same,IC50,"α4β4 nAChR; Peak, α4β4, VH −60 mV, peak current",970 nM
same,IC50,"α4β4 nAChR; Peak, α4β4, VH −80 mV, peak current",350 nM
same,IC50,"α4β4 nAChR; Peak, α4β4, VH −100 mV, peak current",290 nM
same,recovery of peak current after six ACh applications (36 min),"α4β4 nAChR; α4β4, 10 μM toxin, −80 mV",very limited or absent
same,decrease of peak current IC50 from −60 mV to VH −100 mV,"α4β4 nAChR; α4β4, peak current",3.3 fold
same,times less sensitive than the most sensitive subtype,"α4β4 nAChR; α4β4 vs α3β4 (for PhTX-12: α1β1γδ along with α3β4), late current IC50, −80 mV",5 times
same,late current IC50 lower than that for α4β2,"α4β4 nAChR; α4β4 vs α4β2, late current",~5 fold
same,peak current IC50 lower than that for α4β2,"α4β4 nAChR; α4β4 vs α4β2, peak current",roughly 3 fold
same,IC50,"α7 nAChR; Late, α7, VH −60 mV, based on the area under the current trace (no stable late current)",6560 nM
same,IC50,"α7 nAChR; Late, α7, VH −80 mV, based on the area under the current trace (no stable late current)",5060 nM
same,IC50,"α7 nAChR; Late, α7, VH −100 mV, based on the area under the current trace (no stable late current)",6770 nM
same,IC50,"α7 nAChR; Peak, α7, VH −60 mV, peak current",6710 nM
same,IC50,"α7 nAChR; Peak, α7, VH −80 mV, peak current",6480 nM
same,IC50,"α7 nAChR; Peak, α7, VH −100 mV, peak current",8800 nM
same,voltage dependence of inhibition,"α7 nAChR; homomeric α7, VH −60 to −100 mV",voltage-independent
same,surmountability of peak current inhibition by increasing ACh concentrations,"α7 nAChR; α7, 30 μM toxin, peak current, −80 mV",surmountable
same,reversibility of inhibition,"α7 nAChR; α7, 30 μM toxin, washing in frog Ringer solution, −80 mV",reversible after 6 min
same,times less sensitive than the most sensitive subtype,"α7 nAChR; α7 vs α3β4 (for PhTX-12: α1β1γδ along with α3β4), late current IC50, −80 mV",422 times
